Measured values as given in patent publication US20020132236A1, “Specific inhibitors of ribosome recycling factors (RRF)” (priority 2000, published 2002).
Entries after “also recorded” stand apart in the source; their conditions may differ.

Key:
[1] = test system: translation of polyuridylic acid (Poly U) into polyphenylalanine; assay: Translation of polyuridylic acid (Poly U) into polyphenylalanine in S30 extract; assay type: biochemical, E. coli; details: as high as 10 μM
Description: The reaction mixture (30 μl) contains 12 μl S30, Premixture (Promega), 20 μM ^14C-phenylalanine (Amersham, 450 Ci/mole), 10 mM Mg acetate (MgAc), 0.08 μg/ml polyU (Sigma), 1 A260 unit of E. coli S30 extract (Promega), and 1, 4, 7, or 10 μM sd-G4 (FIG. 4). The reaction mixture is incubated at 37° C. At various periods after the onset of the reaction, hot TCA (trichloroacetic acid) insoluble counts are measured.

E. coli RRF = E. coli RRF (Escherichia coli, UniProt P0A805); assay: Gel retardation assay with E. coli RRF and 32P-end-labeled sd-G4; assay type: binding; details: about 2.4 μM, competed by non-labeled sd-G4, BSA negative control
Chain of E. coli RRF (P0A805 whole entry): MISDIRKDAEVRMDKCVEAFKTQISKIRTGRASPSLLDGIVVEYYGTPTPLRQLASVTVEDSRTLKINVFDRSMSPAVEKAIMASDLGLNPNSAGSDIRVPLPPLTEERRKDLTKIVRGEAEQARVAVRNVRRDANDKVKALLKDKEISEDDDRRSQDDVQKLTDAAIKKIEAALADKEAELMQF
Description: The reaction mixture for the binding of ^32P-end-labeled sd-G4 to RRF (10 μl) contains 8 mM Tris-Cl(pH 7.6), 9.7 mM MgSO4, 81 mM NH4Cl, 1.3 mM DTT, and approximately 2.4 μM of ^32P-end-labeled sd-G4. E. coli RRF, EF-G, polysome, BSA are added as indicated in FIG. 9 and competitor non-labeled sd-G4 is added at ½, 1, 2, and 4 times the concentration of the labeled sd-G4 (FIG. 9). The mixture is incubated at 30° C. for 15 min. 5% Glycerol and one-tenth volume of 25% Ficoll containing xylane cyanol and bromphenol blue is added, and the entire reaction mixture is subjected to 4% polyacrylamide gel (29:1, acrylamide/bisacrylamide) electrophoresis at 10 V/cm with constant recirculation of TBE buffer (89 mM Tris-borate, 2.5 mM EDTA, pH 8.3). The gel is dried onto Whatman 3MM paper and subject to autoradiography.

RRF [2] = target: T1, RRF (Escherichia coli, UniProt P0A805); assay: RRF reaction: conversion of polysomes to monosomes (sucrose gradient); assay type: biochemical, E. coli; details: 1× RRF (72 ng/ml) vs 2× RRF (144 ng/ml)
T1 sequence (P0A805 whole entry): as above

RRF [3] = target: T1, RRF; assay: Release of ribosome-bound deacylated tRNA by RRF; assay type: biochemical; details: 7 μM, various amounts of E. coli polysome
Description: The reaction mixture (550 μl) for the RRF reaction contains 0.2 nmole RRF where indicated, 0.2 nmole EF-G, 0.37 μM GTP, 275 μM puromycin, 10 μM sd-G4 where indicated, and various amounts of E. coli polysome (see FIG. 8). The mixture is incubated for 15 min. at 30° C. The released tRNA is separated from the complex with pre-washed Microcon 100 (Millipore, 330× g, 40 min). The filter is washed once by centrifugation with 550 μl of a buffer (10 mM Tris-Cl, pH 7.6, 8.2 mM MgSO4, 80 mM NH4Cl, 0.14 mM DTT) and combined with the filtrate. Separated tRNA solution is concentrated with Microcon 30 (Millipore, 14,000× g, 15 min. twice) to a total volume of 14 μl. The concentrated tRNA is charged with 0.15 μCi of ^14C-amino acids mixture (Amersham, 52 mCi/mg) in 30 μl of the reaction mixture (50 mM Tris-Cl, pH 7.8,10 mM MgAc, 6 mM β-mercaptoethanol, 3 mM ATP, 5 mM phosphoenolpyruvate, 138 μg pyruvate kinase, 33.3 μg aminoacyl tRNA synthetases). Cold (4° C.) TCA (trichloro acetic acid) insoluble radioactivity is measured to estimate the amount of tRNA released. In this experiment, the amount of tRNA released is measured by its capacity to accept an amino acid.

Swiss Webster male mice = assay: Toxicity studies in mice; assay type: in vivo; details: iv, ip
Description: Swiss Webster male mice weighing 20-25 grams receive intraperitoneal or intravenous injections of tetra guanylic acid, dissolved in 0.9% sodium chloride, see Table 1 for dosages.
For sd-G4 to be active as a specific inhibitor of RRF sd-G4 must be non-toxic in living organisms. Dosages (20-125 mg/kg) of sd-G4 and its related tetra nucleotides are administered to mice intraperitonially, as well as intraveniously, and neither acute nor chronic toxicity is noted, i.e., no grossly observable changes in growth activity, locomotor activity, food intake, or water intake during an observation period of 25 days. Moreover, no pathological signs are noted at autopsy (Table 1). […] Thus, sd-G4 is best choice for a lead compound in the computer based rational design of the anti RRF agents.

RRF [4] = target: T1, RRF; assay: RRF reaction: conversion of polysomes to monosomes (sucrose gradient); assay type: biochemical, E. coli; details: for Inhibition of the RRF reaction (conversion of polysomes to monosome): dose response, expressed as percent inhibition
Description: The reaction mixture (275 μl) contained 72 ng/ml RRF, 0.4 μg/ml EF-G, 363 nM GTP, 10 mM Tris-Cl, pH 7.4, 8.2 mM MgSO4, […] NH4Cl, 0.3 mM DTT, […] puromycin, 1 A260 polysome of E. coli, and an increasing concentration of sd-G4, as indicated in FIG. 1. The reaction mixture is incubated for 15 min at 30° C., loaded onto a sucrose gradient (15% to 30% in buffer J (Hirashima, A., Kaji, A., Biochemistry 11: 461-471, 1972) and centrifuged at 40,000 rpm for 75 min at 4° C. The ISCO density gradient analyzer monitored sedimentation profiles of the polyribosome. The value is expressed as a percent inhibition calculated from the area of 70S and polysome on those profiles.

[5] = test system: MS2 RNA dependent protein synthesis; assay: MS2 RNA dependent protein synthesis in S30 extract; assay type: biochemical, E. coli; details: 7 μM, 8 minute point
Description: The reaction mixture (30 μl) contains 12 μl S30 (Kaji, 1968), Premixture (Promega), 2.4 μg MS2 phage RNA (Boehringer Mannheim), 0.1 mM amino acids mixture minus methionine (Promega), 10.1 pmole ^35S-methionine (NEN, 0.6 Ci/μmole), 0.6 A ^260U S30 extract (Promega), and 1, 4, 7, or 10 μM sd-G4 (FIG. 3). The reaction mixture is incubated at 37° C. At various times after the onset of the reaction, hot TCA (trichloroacetic acid) insoluble counts are measured.

**Q.** How did the “Polyphenylalanine formation (incorporation of labeled phenylalanine)” value [1] turn out when “phosphorothioate tetradeoxyguanylic acid [sd-G4]” was run?
**A.** Its value is “does not inhibit”.

**Q.** And the “Binding to RRF (retarded electrophoretic movement)” value (E. coli RRF)?
**A.** Its value is “binds”.

**Q.** And the “Effect of excess RRF on inhibition of the RRF reaction” value (RRF [2])?
**A.** Its value is “reduced by addition of more RRF”.

**Q.** What about the “Release of ribosome-bound deacylated tRNA by RRF” value (RRF [3]) of the same substance?
**A.** The value was “does not inhibit release of tRNA”.

**Q.** And the Visual effect (Swiss Webster male mice; 20 mg-125 mg/kg)?
**A.** Its Visual effect is “none”.

**Q.** What about the “Concentration that significantly inhibited the RRF reaction” value (RRF [4]; 72 ng/ml RRF, 15 min at 30° C.) of the same substance?
**A.** The value was 5 µM.

**Q.** And the “Inhibition of the RRF reaction (conversion of polysomes to monosome)” value (RRF [4])?
**A.** Its value is “inhibits the RRF reaction in a dose-dependent manner; also recorded: has inhibitory activity; also recorded: effective”.

**Q.** And the “Inhibition of protein synthesis (MS2 phage RNA translation)” value [5]?
**A.** Its value is 50%.

**Q.** For tetracytidylic acid, which “Inhibition of the RRF reaction (conversion of polysomes to monosome)” value (RRF [4]) is on record?
**A.** The value was “ineffective”.

**Q.** With “phospo diester tetraguanylic acid [pd-G4]” as the substance, how does the “Inhibition of the RRF reaction (conversion of polysomes to monosome)” value (RRF [4]) read?
**A.** The value was “not effective in inhibiting RRF”.

**Q.** And the “Inhibition of the RRF reaction (conversion of polysomes to monosome)” value (RRF [4]; listed as phosphodiester oligoG)?
**A.** Its value is “retains the ability to inhibit RRF to some extent”.

**Q.** How did the Visual effect (Swiss Webster male mice; 20 mg-125 mg/kg) turn out when 5′ phosphorylated sd-G4 [p sd-G4] was run?
**A.** The Visual effect was “none”.

**Q.** With Tetraadenylic acid as the substance, how does the “Inhibition of the RRF reaction (conversion of polysomes to monosome)” value (RRF [4]) read?
**A.** The value was “ineffective”.

**Q.** “riboinosinic tetraphosphate [(RIP)4, reference compound]” was tested. Which Visual effect (Swiss Webster male mice; 125 mg/kg) did it give?
**A.** Its Visual effect is “none”.

**Q.** tetrathymidylic acid was tested. Which “Inhibition of the RRF reaction (conversion of polysomes to monosome)” value (RRF [4]) did it give?
**A.** Its value is “ineffective”.

**Q.** Which Visual effect (Swiss Webster male mice; 125 mg/kg) does the source give for “deoxyguarylic acid [d-G4, reference compound]” here?
**A.** The Visual effect was “none”.
